In US9499484B2, “Indole, indoline derivatives, compositions comprising them and uses thereof” (priority 2012, dated 2016) one finds melting point data, which are given here for 38 compounds.

Structures can show the parent of a compound that is named as a salt.

Broadly, the melting point is the temperature of the solid-liquid transition. `CCN(C)C(=O)Oc1cccc2[nH]ccc12` had a melting point of 113 to 115 °C. Under `CCOC(=O)CCc1c[nH]c2cccc(OC(=O)N(C)CC)c12` stands 85 to 87 °C. Under `COC(=O)/C=C/c1c[nH]c2cc(O)ccc12` stands 195 to 200 °C; under `CCN(C)C(=O)Oc1cccc2[nH]cc(/C=C/[N+](=O)[O-])c12`, 171 to 174 °C.

On to `COC(=O)/C=C/c1c[nH]c2cccc(OC(=O)N(C)c3ccc(OC)cc3)c12`, for which the melting point lay within 155 to 157 °C. Regarding `CCCCN(C)C(=O)Oc1ccc2c(C=O)cn(C)c2c1`, the melting point was 90 to 95 °C. For `COC(=O)/C=C/c1c[nH]c2cccc(OCc3ccccc3)c12`, the melting point is 153 to 156 °C. Regarding `O=C(O)/C=C/c1c[nH]c2cccc(OCc3ccccc3)c12`, the melting point is 163 to 164 °C. `COc1ccc(N(C)C(=O)Oc2ccc3c(C=O)cn(C)c3c2)cc1` returned a melting point of 110 to 115 °C. In turn, `CCN(C)C(=O)Oc1cccc2c1c(C=O)cn2C` registered a melting point of 85 to 88 °C.

On to `Cn1cc(CCC(=O)O)c2ccc(O)cc21`, for which the melting point is 157 to 161 °C.

The compound `COC(=O)CCc1c[nH]c2c(O)cccc12` gave a melting point of 89 to 94 °C. The figure for `CCN(C)C(=O)Oc1cccc2[nH]cc(CCC(N)=O)c12` is 64 to 66 °C. Under `CCN(C)C(=O)Oc1ccc2c(/C=C/C(=O)OC)cn(C)c2c1` stands 105 to 110 °C; under `CCN(C)C(=O)Oc1cccc2c1c(/C=C/C(=O)OC)cn2C`, 97 to 100 °C. `CCCCN(C)C(=O)Oc1ccc2c(/C=C/C(=O)OC)cn(C)c2c1` came in with a melting point of 65 to 70 °C. The figure for `COC(=O)/C=C/c1c[nH]c2c(OCc3ccccc3)cccc12` is 134 to 137 °C. With `COc1ccc(N(C)C(=O)Oc2cccc3c2c(CCC(=O)O)cn3C)cc1`, the melting point fell in the range of 161 to 163 °C. The figure for `CCCCN(C)C(=O)Oc1ccc2cc[nH]c2c1` is 84 to 87 °C; for `O=C(O)CCc1c[nH]c2cc(O)ccc12` it is 197 to 200 °C. The figure for `CCN(C)C(=O)Oc1ccc2ccn(CCC(=O)OC)c2c1` is 94 to 96 °C.

Take `CCN(C)C(=O)Oc1cccc2c1ccn2C`: the melting point lay in the range of 42 to 45 °C.

`COC(=O)/C=C/c1cn(C)c2cccc(OCc3ccccc3)c12` came in with a melting point of 122 to 125 °C. Compound `COC(=O)/C=C/c1c[nH]c2cc(OCc3ccccc3)ccc12` yielded a melting point of 174 to 178 °C. `CCN(C)C(=O)Oc1cccc2[nH]cc(/C=C/C(=O)O)c12` registered a melting point of 164 to 166 °C.

As for `COC(=O)/C=C/c1cn(C)c2cc(OCc3ccccc3)ccc12`, the melting point was 150 to 155 °C. Under `COC(=O)CCc1c[nH]c2cccc(O)c12` stands 93 to 95 °C; under `COC(=O)CCc1c[nH]c2cc(O)ccc12`, 93 to 96 °C; under `CCCCN(C)C(=O)Oc1cccc2[nH]ccc12`, 86 to 89 °C.

The compound `COC(=O)CCC1CN(C)c2cc(O)ccc21` (centres unmarked) (as salt: hydrochloride) gave a melting point of 104 to 108 °C.

Take `CCN(C)C(=O)Oc1cccc2[nH]cc(/C=C/C(=O)OC)c12`: the melting point was 128 to 131 °C.

For the compound `CCN(C)C(=O)Oc1ccc2c(/C=C/C(=O)OC)c[nH]c2c1`, the melting point fell in the range of 142 to 145 °C. The compound `COC(=O)CCc1cn(C)c2cc(O)ccc12` gave a melting point of 35 to 40 °C.

As to `COc1ccc(N(C)C(=O)Oc2ccc3cc[nH]c3c2)cc1`, the melting point is 168 to 173 °C. In turn, `O=C(O)CCc1c[nH]c2cccc(O)c12` returned a melting point of 118 to 120 °C. In the case of `COC(=O)CCc1cn(C)c2cccc(O)c12`, the melting point fell in the range of 123 to 124 °C. The figure for `COC(=O)CCc1cn(C)c2cccc(OC(=O)N(C)c3ccc(OC)cc3)c12` is 110 to 112 °C. Under `CCN(C)C(=O)Oc1ccc2c(C=O)cn(C)c2c1` stands 124 to 128 °C.
